Assay results reported in US8889688B2, “Piperazines as antimalarial agents” (Actelion Pharmaceuticals Ltd., priority 2011, dated 2014).
Like-named read-outs stand apart in the source and are kept apart here.

Legend:
[1] = tested on: erythrocytic stages of P. falciparum NF54; test: Plasmodium falciparum in vitro assay, [3H] hypoxanthine incorporation; type: cell-based; conditions: Plasmodium falciparum, Erythrocyte, 72 h, P. falciparum NF54 in human red blood cells, 48 h + 24 h incubation
Method: In Vitro Antimalarial Activity: Plasmodium falciparum In Vitro Assay In vitro activity against erythrocytic stages of P. falciparum in human red blood cells is determined using a [^3H] hypoxanthine incorporation assay. […] Thereafter, the parasite cultures incubated in screening medium containing washed human red blood cells at 2.5% hematocrit (0.3% parasitemia) are added to the serially diluted compounds and incubated in a humidifying atmosphere at 37° C., 4% CO2, 3% O2, and 93% N2. After 48 h, [^3H] hypoxanthine (0.5 μCi) is added to each well of a plate. The plates are incubated for a further 24 h under the same conditions then harvested with a Betaplate cell harvester (Wallac) and washed with distilled water. The dried filters are inserted into a plastic foil with 10 mL of scintillation fluid, and counted in a Betaplate liquid scintillation counter. IC50 values are calculated from sigmoidal inhibition curves using Microsoft Excel.

[2] = tested on: P. berghei strain GFP-ANKA; test: In vivo antimalarial efficacy study in infected NMRI mice; conditions: Plasmodium berghei; female NMRI mice infected with P. berghei GFP-ANKA; single oral dose of 100 mg/kg 24 h after infection; parasitemia 48 h after drug treatment (day 3); read-out: Activity (inhibition of parasitemia) expressed as a percent relative to the control group
Method: In Vivo Antimalarial Efficacy Studies
In vivo antimalarial activity is assessed for groups of three female NMRI mice (20-22 g) intravenously infected on day 0 with P. berghei strain GFP-ANKA (0.2 mL heparinized saline suspension containing 2×10^7 parasitized erythrocytes). In control mice, parasitemia typically rises to approximately 40% by day 3 after infection. Compounds are formulated in Tween 80/ethanol (7%/3%) usually at concentrations of 10 mg/mL. Compounds are administered in a volume of 10 mL/kg orally as single doses (1×100 mg/kg, 24 h after infection). 48 h after drug treatment (day 3 post-infection), 1 μl tail blood is taken, resuspended in 1 mL PBS buffer and parasitemia determined with a FACScan (Becton Dickinson) by counting 100′000 red blood cells. Activity is calculated as the difference between the mean value of the control group and treated groups expressed as a percent relative to the control group.

[3] = screening medium with Albumax (5 g/L), read-out: IC50 on NF54 (with Albumax)
[4] = screening medium with human serum (50% final concentration), read-out: IC50 on NF54 (with 50% Serum)

| SMILES | IC50 [1, 3] [nM] | IC50 [1, 4] [nM] | inhibition in vivo at 100 mg/kg [2] [%] |
| --- | --- | --- | --- |
| CC(=O)N1CCN(c2ccc(CN(C(=O)C=Cc3ccc(OC(F)F)cc3)[C@@H](Cc3ccccc3)C(=O)N3CCN(Cc4ccc(N(C)C)cc4)CC3)cc2)CC1 [Example 21, (S)-N-[4-(4-Acetyl-piperazin-1-yl)-benzyl]-N-{1-benzyl-2-[4-(4-dimethylamino-benzyl)-piperazin-1-yl]-2-oxo-ethyl}-3-(4-difluoromethoxy-phenyl)-acrylamide] | 1.9 | 7 | 98.8 |
| CC(=O)N1CCN(c2ccc(CN(C(=O)C=Cc3ccc(C(C)(C)C)cc3)[C@@H](Cc3ccccc3)C(=O)N3CCN(Cc4ccc(N(C)C)cc4)CC3)cc2)CC1 [Example 22, (S)-N-[4-(4-Acetyl-piperazin-1-yl)-benzyl]-N-{1-benzyl-2-[4-(4-dimethylamino-benzyl)-piperazin-1-yl]-2-oxo-ethyl}-3-(4-tert-butyl-phenyl)-acrylamide] | 1.3 | 10.9 | 99.3 |
| CC(=O)N1CCN(c2ccc(CN(C(=O)C=Cc3ccc(C(C)C)cc3)[C@@H](Cc3ccccc3)C(=O)N3CCN(Cc4ccc(N(C)C)cc4)CC3)cc2)CC1 [Example 23, (S)-N-[4-(4-Acetyl-piperazin-1-yl)-benzyl]-N-{1-benzyl-2-[4-(4-dimethylamino-benzyl)-piperazin-1-yl]-2-oxo-ethyl}-3-(4-isopropyl-phenyl)-acrylamide] | 1.3 | 9.5 | 99.1 |
| CC(=O)N1CCN(c2ccc(CN(C(=O)C=Cc3ccc(C(F)(F)F)cc3)[C@@H](Cc3ccccc3)C(=O)N3CCN(Cc4ccc(C#N)cc4)CC3)cc2)CC1 [Example 24, (S)-N-[4-(4-Acetyl-piperazin-1-yl)-benzyl]-N-{1-benzyl-2-[4-(4-cyano-benzyl)-piperazin-1-yl]-2-oxo-ethyl}-3-(4-trifluoromethyl-phenyl)-acrylamide] | 2.8 | 13.9 | 79.2 |
| CCOc1ccc(C=CC(=O)N(Cc2ccc(N3CCN(C(C)=O)CC3)cc2)[C@@H](Cc2ccccc2)C(=O)N2CCN(Cc3ccc(C#N)cc3)CC2)cc1 [Example 25, (S)-N-[4-(4-Acetyl-piperazin-1-yl)-benzyl]-N-{1-benzyl-2-[4-(4-cyano-benzyl)-piperazin-1-yl]-2-oxo-ethyl}-3-(4-ethoxy-phenyl)-acrylamide] | 1.2 | 4.7 | 99.1 |
| CC(=O)Nc1ccc(C=CC(=O)N(Cc2ccc(N3CCN(C(C)=O)CC3)cc2)[C@@H](Cc2ccccc2)C(=O)N2CCN(Cc3ccc(C#N)cc3)CC2)cc1 [Example 27, (S)-3-(4-Acetylamino-phenyl)-N-[4-(4-acetyl-piperazin-1-yl)-benzyl]-N-{1-benzyl-2-[4-(4-cyano-benzyl)piperazin-1-yl]-2-oxo-ethyl}-acrylamide] | 1.8 | 12.9 | < 40 |
| CCCOc1ccc(C=CC(=O)N(Cc2ccc(N3CCN(C(C)=O)CC3)cc2)[C@@H](Cc2ccccc2)C(=O)N2CCN(Cc3ccc(C#N)cc3)CC2)cc1 [Example 28, (S)-N-[4-(4-Acetyl-piperazin-1-yl)-benzyl]-N-{1-benzyl-2-[4-(4-cyano-benzyl)-piperazin-1-yl]-2-oxo-ethyl}-3-(4-propoxy-phenyl)-acrylamide] | 1.1 | 3.6 | 99.3 |
| CC(=O)N1CCN(c2ccc(CN(C(=O)C=Cc3ccc(OC(C)C)cc3)[C@@H](Cc3ccccc3)C(=O)N3CCN(Cc4ccc(C#N)cc4)CC3)cc2)CC1 [Example 29, (S)-N-[4-(4-Acetyl-piperazin-1-yl)-benzyl]-N-{1-benzyl-2-[4-(4-cyano-benzyl)-piperazin-1-yl]-2-oxo-ethyl}-3-(4-isopropoxy-phenyl)-acrylamide] | 1.1 | 3.7 | 99.2 |
| CCc1ccc(C=CC(=O)N(Cc2ccc(N3CCN(C(C)=O)CC3)cc2)[C@@H](Cc2ccccc2)C(=O)N2CCN(Cc3ccc(C#N)cc3)CC2)cc1 [Example 30, (S)-N-[4-(4-Acetyl-piperazin-1-yl)-benzyl]-N-{1-benzyl-2-[4-(4-cyano-benzyl)-piperazin-1-yl]-2-oxo-ethyl}-3-(4-ethyl-phenyl)-acrylamide] | 0.9 | 5 | 97.7 |
| CC(=O)N1CCN(c2ccc(CN(C(=O)C=Cc3ccc(OC(F)F)cc3)[C@@H](Cc3ccccc3)C(=O)N3CCN(Cc4ccc(C#N)cc4)CC3)cc2)CC1 [Example 31, (S)-N-[4-(4-Acetyl-piperazin-1-yl)-benzyl]-N-{1-benzyl-2-[4-(4-cyano-benzyl)-piperazin-1-yl]-2-oxo-ethyl}-3-(4-difluoromethoxy-phenyl)-acrylamide] | 1.7 | 3.8 | 88.9 |
| CC(=O)N1CCN(c2ccc(CN(C(=O)C=Cc3ccc(C(C)C)cc3)[C@@H](Cc3ccccc3)C(=O)N3CCN(Cc4ccc(C#N)cc4)CC3)cc2)CC1 [Example 32, (S)-N-[4-(4-Acetyl-piperazin-1-yl)-benzyl]-N-{1-benzyl-2-[4-(4-cyano-benzyl)-piperazin-1-yl]-2-oxo-ethyl}-3-(4-isopropyl-phenyl)-acrylamide] | 0.5 | 4.4 | 98.5 |
| CC(=O)N1CCN(c2ccc(CN(C(=O)C=Cc3ccc(OC(F)(F)F)cc3)[C@@H](Cc3ccccc3)C(=O)N3CCN(Cc4ccc(C#N)cc4)CC3)cc2)CC1 [Example 33, (S)-N-[4-(4-Acetyl-piperazin-1-yl)-benzyl]-N-{1-benzyl-2-[4-(4-cyano-benzyl)-piperazin-1-yl]-2-oxo-ethyl}-3-(4-trifluoromethoxy-phenyl)-acrylamide] | 3.3 | 10.9 | 97.4 |
| CC(=O)N1CCN(c2ccc(CN(C(=O)C=Cc3ccc(C(C)(C)C)cc3)[C@@H](Cc3ccccc3)C(=O)N3CCN(Cc4ccc(C#N)cc4)CC3)cc2)CC1 [Example 34, (S)-N-[4-(4-Acetyl-piperazin-1-yl)-benzyl]-N-{1-benzyl-2-[4-(4-cyano-benzyl)-piperazin-1-yl]-2-oxo-ethyl}-3-(4-tert-butyl-phenyl)-acrylamide] | 0.5 | 3.8 | 99.2 |
| CCOc1ccc(C=CC(=O)N(Cc2ccc(N3CCN(C(C)=O)CC3)cc2)[C@@H](Cc2ccccc2)C(=O)N2CCN(Cc3ccc(Cl)cc3)CC2)cc1 [Example 35, (S)-N-[4-(4-Acetyl-piperazin-1-yl)-benzyl]-N-{1-benzyl-2-[4-(4-chloro-benzyl)-piperazin-1-yl]-2-oxo-ethyl}-3-(4-ethoxy-phenyl)-acrylamide] | 2.9 | 9 | 98.7 |
| CC(=O)N1CCN(c2ccc(CN(C(=O)C=Cc3ccc(S(C)(=O)=O)cc3)[C@@H](Cc3ccccc3)C(=O)N3CCN(Cc4ccc(Cl)cc4)CC3)cc2)CC1 [Example 36, (S)-N-[4-(4-Acetyl-piperazin-1-yl)-benzyl]-N-{1-benzyl-2-[4-(4-chloro-benzyl)-piperazin-1-yl]-2-oxo-ethyl}-3-(4-methanesulfonyl-phenyl)-acrylamide] | 7.8 | 28 | 46.8 |
| CCCOc1ccc(C=CC(=O)N(Cc2ccc(N3CCN(C(C)=O)CC3)cc2)[C@@H](Cc2ccccc2)C(=O)N2CCN(Cc3ccc(Cl)cc3)CC2)cc1 [Example 38, (S)-N-[4-(4-Acetyl-piperazin-1-yl)-benzyl]-N-{1-benzyl-2-[4-(4-chloro-benzyl)-piperazin-1-yl]-2-oxo-ethyl}-3-(4-propoxy-phenyl)-acrylamide] | 1.8 | 9 | 98.5 |
| CC(=O)N1CCN(c2ccc(CN(C(=O)C=Cc3ccc(OC(C)C)cc3)[C@@H](Cc3ccccc3)C(=O)N3CCN(Cc4ccc(Cl)cc4)CC3)cc2)CC1 [Example 39, (S)-N-[4-(4-Acetyl-piperazin-1-yl)-benzyl]-N-{1-benzyl-2-[4-(4-chloro-benzyl)-piperazin-1-yl]-2-oxo-ethyl}-3-(4-isopropoxy-phenyl)-acrylamide] | 2.3 | 11 | 99 |
| CCc1ccc(C=CC(=O)N(Cc2ccc(N3CCN(C(C)=O)CC3)cc2)[C@@H](Cc2ccccc2)C(=O)N2CCN(Cc3ccc(Cl)cc3)CC2)cc1 [Example 40, (S)-N-[4-(4-Acetyl-piperazin-1-yl)-benzyl]-N-{1-benzyl-2-[4-(4-chloro-benzyl)-piperazin-1-yl]-2-oxo-ethyl}-3-(4-ethyl-phenyl)-acrylamide] | 1.7 | 10.5 | 93.6 |
